{"source": "patent US12188095B2", "about": "“Methods and compositions for identifying and treating patients with small cell lung cancer” (UNIVERSITY OF UTAH RESEARCH FOUNDATION, priority 2016, dated 2025)", "key": {"human cell lines": {"tested_on": "human cell lines", "assay": "Human cell line viability with BCL2 inhibitors (CellTiter-Glo, GI50)", "assay_type": "cell-based", "settings": "96 h", "description": "Human cell lines were seeded in triplicate in white, flat-bottomed 96-well plates at 2000 cells/well. […] Drug was added again at 48 h to maintain the desired final concentration. After 96 h of treatment, cell viability was measured using Cell Titer Glo (CTG) assay (Promega, Madison, Wis., USA) and plates were read on a luminometer. Normalized, transformed dose response curves were generated and analyzed using GraphPad Prism (GraphPad, La Jolla, Calif., USA) to determine GI50 for each compound (see, FIG. 13). Error bars represent mean+/−SEM."}, "[1]": {"tested_on": "RPM mouse SCLC cell lines", "assay": "Mouse cell viability and proliferation assays (CellTiter-Glo, GI50)", "assay_type": "cell-based", "settings": "96 hrs; for GI50: RPM cell lines (n=7)", "description": "Mouse cell viability and proliferation assays. Cells were seeded in triplicate (1500/well) in white, flat-bottom 96-well plates. […] After 96 hrs of treatment, cell viability was measured using Cell Titer Glo (CTG, Promega, Madison, Wis., USA) on a luminometer. Normalized, transformed dose response curves were generated and analyzed using GraphPad Prism (GraphPad, La Jolla, Calif., USA) to determine GI50 for each compound. […] Confluence percentage at each time point was calculated by the Essen IncuCyte software."}, "MYC": {"tested_on": "MYC", "assay": "MYC protein level and stability (immunoblot, cycloheximide)", "assay_type": "cell-based", "settings": "mouse or human cells, also after cycloheximide block of protein synthesis", "description": "Alternatively, cell lysates were prepared using RIPA buffer supplemented with protease inhibitors (Roche complete mini) and benzonase (Millipore)), separated on 4-20% Tris-glycine SDS-PAGE gels (Invitrogen), and transferred to PVDF-FL membrane (Millipore). Membranes were blocked using Li-Cor blocking buffer (1:10 in TBS) and incubated with primary antibodies in blocking solution with 0.2% Tween 20 overnight at 4° C. Prior to detection with a near-IR imaging system (Li-Cor Odyssey), membranes were washed in TBS-T, incubated with secondary antibodies and washed in TBS-T. For total Aurora A in FIG. 6H, the chemiluminescent signal (ECL, GE Healthcare) was captured with a CCD-camera (BioRad Geldoc XR+). […]\nProtein stability cycloheximide (CHX) experiments. […] Protein lysates were prepared using RIPA buffer as described above, separated on 4-20% Tris-glycine gels (Invitrogen), and analyzed by immunoblot against Myc and Hsp90. Signals were quantified using Li-Cor Image Studio (Li-Cor Biosciences) and ratios of Myc/Hsp90 normalized to the 0 min time point. […]"}, "AURKA": {"tested_on": "AURKA", "assay": "Immunoblot of Aurora kinase inhibition in treated cells", "assay_type": "cell-based", "settings": "concentrations in the range of the GI50-value, mouse and human cells"}, "[2]": {"tested_on": "RPM mice with Myc-driven SCLC", "assay": "In vivo drug study in RPM mice (microCT tumor volume, survival)", "parameters": "species or system mouse", "experimental": "Alisertib (MLN8237, ApexBio, dissolved in 10% 2-hydroxy-beta-cyclo-dextrin and 1% sodium bicarbonate) was given 20 mg/kg twice daily by oral gavage on a schedule of 5 days on, 2 days off. […] For survival studies, endpoints include but are not limited to: difficulty breathing, eating or moving, obvious signs of pain or weight loss greater than 20% of initial body weight.\nMice were scanned for 34 sec under isoflurane anesthesia using a small animal Quantum FX microCT (PerkinElmer) at 45 μm resolution, 90 kV with 160 μA current. Images were acquired using PerkinElmer Quantum FX software and processed with Analyze 11.0 (AnalyzeDirect).\nScans were calibrated for Hounsfield Units (HU) by determining the mean value of “Bed” and “Air” for representative scans through the region of interest (ROI) tool and matching those values to their known HU (40 HU and −1000 HU, respectively) using the “Image Algebra” tool. Every image was then applied a 3×3×3 Median Filter from the “Spatial Filters” window. Thresholds of “Air” vs. “Dense Tissue” were established using the ROI and histogram tools. Every image was processed and normalized using the “Image Algebra” tool, followed by a 3×3×3 Median Filter from the “Spatial Filters” window. For Total Tumor Burden Analyses, the object map was created using the previously established thresholds; adjustments were made manually using “Spline Edit”, “Draw” and “Nudge Edit” tools. The object map was then morphed using the “Morphology” tool. The object map was made binary by using the threshold morphing tool. Then, the map was dilated 3 times using 5×5×5 Jack-shaped structuring elements. The holes were then filled on every 2D-orientation. The map was finally brought back to its original size using the “Erode” tool 3 times using 5×5×5 Jack-shaped structuring elements. The volumetric analyses were then performed in the ROI window using the pre-established thresholds and non-airspace was calculated using the formula: Non-airspace=1−(VolAir/ROIVol). For individual tumors, the 3D segmentation was performed semiautomatically using Analyze 11.0 “object extract tool”. Adjustments were made manually using the “Spline Edit”, “Draw” and “Nudge Edit” tools. The tumor segmentation was then processed using the semi-automatic tools “fill holes” and the object was propagated and smoothed in the axial, transverse and coronal planes. Volume quantification was obtained using the ROI tool as for total tumor burden analyses.\nTotal tumor volume was quantified relative to total air volume as a comprehensive measurement of treatment impact. […] The percent change in total tumor volume was analyzed at Day 19 (or at the time of death, if sooner) compared to Day 0 in each treatment group by waterfall plot."}, "human SCLC cell lines": {"tested_on": "human SCLC cell lines", "assay": "Drug screening of human SCLC cell lines (CellTiter-Glo viability, GI50)", "assay_type": "cell-based", "settings": "17 human SCLC cell lines, 72-96 hr; adjusted p: etoposide 0.038, alisertib 0.001, barasertib 0.022", "experimental": "Drug screening. Human SCLC cell lines were cultured in RPMI or HITES as described before (Sos et al., 2012). […] After 96 hr, cell viability was analyzed using CTG reagent. […] For PF-670462 (Apexbio), MS436 (MedChem Express), barasertib/1152-HQPA (Apexbio), alisertib/MLN8237 (Apexbio) and milciclib/PHA-848125 (MedChem Express), all dissolved in DMSO, indicated cell lines were screened using the same protocol in 384-well format with 500 (adherent) or 5000 (suspension) cells per well (25 ml) and treated using a robotic system (CyBio CyBi well vario). Upon treatment, cells were incubated for 72 hr prior to addition of CTG reagent. Each cell line and concentration was analyzed in quadruplicate per experiment with n=3 independent trials."}, "RPM cells": {"tested_on": "RPM cells", "assay": "Cell cycle analysis (PI staining, flow cytometry)", "assay_type": "cell-based, mouse", "settings": "48 hr", "description": "Cell cycle analysis. Cells were treated with indicated concentrations of alisertib (MLN8237, Selleckchem, Houston, Tex.) in 6-well plates and harvested with trypsin, washed twice in PBS, and 1×10^6 cells were fixed in ice-cold 70% ethanol overnight. Cells were washed 2× in PBS/1% BSA, treated with 100 μg/mL RNase for 10 min at 37° C., then stained with 25 μg/mL propidium iodide (PI) overnight at 4 C. Cells were analyzed on a BD FACScan flow cytometer and cell cycle analysis excluding cell doublets was performed using FlowJo software."}, "relapsed SCLC": {"tested_on": "relapsed SCLC", "settings": "monotherapy, relapsed SCLC (Melichar et al., 2015); cited from earlier work"}, "AURKB": {"target": "T1, AURKB (Homo sapiens, UniProt Q96GD4)", "T1 construct": "Whole cell lysates analyzed by immunoblot for indicated antibodies; endogenous in cells; host or cells: GLC2 (human SCLC)", "T1 sequence (Q96GD4 whole entry)": "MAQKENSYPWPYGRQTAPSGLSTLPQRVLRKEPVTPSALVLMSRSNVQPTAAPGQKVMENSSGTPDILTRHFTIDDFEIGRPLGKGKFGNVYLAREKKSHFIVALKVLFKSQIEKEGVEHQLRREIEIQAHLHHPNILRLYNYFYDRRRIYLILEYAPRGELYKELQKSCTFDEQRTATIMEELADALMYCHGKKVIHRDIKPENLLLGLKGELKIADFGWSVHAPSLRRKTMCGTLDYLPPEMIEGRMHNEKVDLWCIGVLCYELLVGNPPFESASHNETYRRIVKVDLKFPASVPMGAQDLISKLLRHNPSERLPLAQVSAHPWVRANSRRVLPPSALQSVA", "assay": "Immunoblot of Aurora kinase inhibition in treated cells", "assay_type": "cell-based", "settings": "concentrations in the range of the GI50-value, mouse and human cells", "description": "Immunoblot. For primary lung tumor lysates, mouse lung tumors were micro-dissected under sterile conditions, flash frozen and stored at −80° C. until use. Approximately 20-40 mg tumor pieces were disrupted and lysed to homogeneity with disposable pestles and cordless motor (VWR) in 200 μl RIPA buffer supplemented with protease inhibitors (Roche complete mini) and sodium orthovanadate (Sigma). Lysates are centrifuged at 13000 rpm for 15 minutes and supernatants are transferred to new tubes. For cell line lysates, total protein lysates are prepared as previously described, separated via SDS-PAGE and transferred to a PVDF membrane (Oliver et al., 2011). Membranes were blocked for 1 hr in 5% milk or 5% BSA, followed by overnight incubation with primary antibodies at 4° C. Membranes were washed for 6×5 min at room temperature in TBS-T. Mouse and rabbit HRP-conjugated secondary antibodies (Jackson ImmunoResearch, 1:10,000) were incubated for 1 hr at room temperature followed by washing 6×5 min at room temperature in TBS-T. For detection, membranes were exposed to WesternBright HRP Quantum substrate (Advansta) and detected on Hyblot CL film (Denville Scientific Inc). […]"}, "[3]": {"tested_on": "human SCLC cell lines infected with Bcl-2 vector", "assay": "Viability of human SCLC cell lines overexpressing BCL2", "assay_type": "cell-based", "settings": "human SCLC cell lines with pMSCV PIG Bcl-2 vs empty vector", "experimental": "HEK293T cells were transfected with pMSCV PIG (Addgene Plasmid #21654) empty vector, or pMSCV PIG with an insert that encodes the human Bcl-2 gene in addition to pCMV-VSVG and pCMV delta R8.2 plasmids using TransIT-LT1 (Minis). Virus was collected at 48 and 72 hr post-transfection. Human SCLC cell lines were infected with viral supernatant. Infected cells were selected with puromycin for several days until all uninfected cells were killed by puromycin. […] Cell viability assays were carried out as previously described, with the addition of Alisertib+/−0.5 uM ABT-199 (ApexBio) using the infected human cell lines described above. Cell viability assays were carried out as previously described, with the addition of Alisertib+/−0.5 uM ABT-199 (ApexBio) using the infected human cell lines described above."}, "[4]": {"tested_on": "MYC-high vs. MYC-low human SCLC cell lines", "settings": "68 human SCLC cell lines binned by MYC expression, data of Polley et al., 2016; cited from earlier work"}, "RPM tumors": {"tested_on": "RPM tumors", "assay": "IHC and histology of tumors of treated RPM mice", "assay_type": "in vivo, mouse", "experimental": "Sections were dewaxed, rehydrated and subjected to high temperature antigen retrieval, 20 min boiling in a pressure cooker in 0.01 M citrate buffer, pH 6.0. Slides were blocked in 3% H202 for 15 min, blocked in 5% goat serum in PBS/0.1% Tween-20 (PBS-T) for 1 hr, and stained overnight in blocking buffer with primary antibodies. A HRP conjugated secondary antibody (Vector Laboratories) was used at 1:200 dilution in PBS-T, incubated for 45 min at room temperature, followed by DAB staining (Vector Laboratories). All staining was performed with Sequenza coverplate technology. Mouse on Mouse (M.O.M.) Basic Kit (Vector Laboratories) was used for staining with BrdU and Ki67 mouse primary antibodies. Tris buffered saline with Tween-20 (TBS-T) was used instead of PBS-T for phospho-protein antibodies. […]\nFor automated image analysis, IHC-stained slides were digitally scanned with the Aperio AT2 Scanscope and whole slides images were quantitatively analyzed with image analysis nuclear algorithm using Halo digital imaging analysis software (Indica Labs, NM, USA). […] Results are expressed as percent positive cells per tumor area."}}}
{"smiles": "CC1(C)CCC(CN2CCN(c3ccc(C(=O)NS(=O)(=O)c4ccc(NCC5CCOCC5)c([N+](=O)[O-])c4)c(Oc4cnc5[nH]ccc5c4)c3)CC2)=C(c2ccc(Cl)cc2)C1", "note": "[ABT-199]", "values": [{"measurement": "sensitivity (GI50) to BCL2 inhibition relative to MYC expression", "setting": "human cell lines", "value": "MYC expression anti-correlates with BCL2 expression and sensitivity to BCL2 inhibition"}]}
{"smiles": "CN(C)CC[C@H](CSc1ccccc1)Nc1ccc(S(=O)(=O)NC(=O)c2ccc(N3CCN(Cc4ccccc4-c4ccc(Cl)cc4)CC3)cc2)cc1[N+](=O)[O-]", "note": "[ABT-737]", "values": [{"measurement": "sensitivity (GI50) to BCL2 inhibition relative to MYC expression", "setting": "human cell lines", "value": "MYC expression anti-correlates with BCL2 expression and sensitivity to BCL2 inhibition"}]}
{"smiles": "COc1cc(Nc2ncc3c(n2)-c2ccc(Cl)cc2C(c2c(F)cccc2OC)=NC3)ccc1C(=O)O", "note": "[alisertib]", "values": [{"measurement": "sensitivity of RPM cells compared to adenocarcinoma cell lines and non-MYC-driven cells (GI50)", "setting": "[1]; RPM vs RPP, RP, KP cell lines", "value": "particularly sensitive"}, {"measurement": "MYC protein level", "setting": "MYC", "value": "did not primarily lead to reduced MYC protein"}, {"measurement": "inhibition of AURKA", "setting": "AURKA", "value": "dose-dependent inhibition"}, {"measurement": "increase of median survival compared to untreated animals", "setting": "[2]; Day 0 = start of treatment", "value": 10, "unit": "days"}, {"measurement": "mice that survived 30 days", "setting": "[2]; PBS 0%", "value": 8, "unit": "%"}, {"measurement": "tumor growth (total tumor volume by microCT)", "setting": "[2]; three cycles, alisertib 20 mg/kg twice daily 5 days on 2 off, cisplatin 5 mg/kg + etoposide 10 mg/kg once weekly", "value": "modest delay in tumor growth"}, {"measurement": "overall response (percent change in total tumor volume Day 0-19) compared to untreated animals", "setting": "[2]; waterfall plot", "value": "did not impact overall response"}, {"measurement": "drug response (GI50) of MYC-driven SCLCs versus those driven by MYCL or MYCN", "setting": "human SCLC cell lines", "value": "significantly more responsive"}, {"measurement": "subG1 cells", "setting": "RPM cells; RPM cells compared to KP, RPP and RP cells", "value": "greater increase in subG1 cells"}, {"measurement": "G2/M phase cells", "setting": "RPM cells; RPM cells", "value": "dose-dependent increase in G2/M phase cells"}, {"measurement": "patients exhibiting partial responses", "setting": "relapsed SCLC", "value": "~20", "unit": "%"}, {"measurement": "inhibition of AURKB", "setting": "AURKB", "value": "dose-dependent inhibition"}, {"measurement": "Alisertib sensitivity on BCL2 overexpression", "setting": "[3]", "value": "BCL2 overexpression promotes Alisertib resistance"}, {"measurement": "efficacy (IC50) in MYC-high versus MYC-low cell lines", "setting": "[4]", "value": "increased efficacy in MYC-high cell lines"}, {"measurement": "cells with polyploidy and aberrant mitoses", "setting": "RPM tumors; alisertib 20 mg/kg twice daily", "value": "dramatic enrichment"}, {"measurement": "NEUROD1+ cells by IHC", "setting": "RPM tumors; compared to other treatment groups", "value": "significantly enriched"}]}
{"smiles": "N.N.[Cl][Pt][Cl]", "note": "[cisplatin]", "values": [{"measurement": "GI50", "setting": "[1]", "value": "high micromolar"}]}
{"smiles": "COc1cc([C@@H]2c3cc4c(cc3[C@@H](O[C@@H]3O[C@@H]5CO[C@@H](C)O[C@H]5[C@H](O)[C@H]3O)[C@H]3COC(=O)[C@H]23)OCO4)cc(OC)c1O", "note": "[etoposide]", "values": [{"measurement": "GI50", "setting": "[1]", "value": "nanomolar"}]}
